Consider 6 substances from PMC7091509 (Biophysical Journal, 2020).

Test [1] relates to first vinculin head domain (Vd1). Description: AFM single-molecule force spectroscopy. The test is classed as binding. The note with it: for relative mechanical stability of Vd1-VBS complex / ratio of unfolding to direct unbinding (UF/UB): shear-like pulling; for relative mechanical stability of Vd1-VBS complex: AFM experiments and simulations; for ratio of unfolding to direct unbinding (UF/UB): derived from AFM experiments.

The subject of another test is vinculin. The conditions noted are these: cited from earlier work.
The target in test [2] is first vinculin head domain Vd1 (aa 1-258), SII-Vd1-ybbR (UniProt P18206). Description: AFM single-molecule force spectroscopy.
Setting [3] is: C-terminal pulling, bimodal distribution, 800 nm/s.

“Also recorded” adds a separate entry of the source. A value given as a limit tells only on which side of the number the result lay.

Sequence of first vinculin head domain Vd1 (aa 1-258), SII-Vd1-ybbR (P18206 1-258): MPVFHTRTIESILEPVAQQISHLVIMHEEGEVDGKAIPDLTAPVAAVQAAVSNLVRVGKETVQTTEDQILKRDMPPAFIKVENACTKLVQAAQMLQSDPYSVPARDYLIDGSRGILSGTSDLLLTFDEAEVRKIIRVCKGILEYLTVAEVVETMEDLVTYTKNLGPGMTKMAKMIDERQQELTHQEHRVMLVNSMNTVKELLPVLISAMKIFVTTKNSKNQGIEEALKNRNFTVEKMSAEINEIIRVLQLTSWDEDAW

As for GEMVGQARILAQATSDLVNAIKDA [Talin VBS11], the “direct unbinding in experiment” value in test [1] (C-terminal (shear-like) pulling, 800 nm/s) is on record as “almost no direct unbinding”. In addition, in test [1] (setting [3]), the “rupture force of high-force population” value was > 60 pN and the “rupture force of low-force population” value is given as < 60 pN. Further, the high-force population entry in test [1] (N-terminal pulling, 800 nm/s) is listed as “disappeared”. The “unfolding pattern in AFM traces” value in test [1] (shear-like pulling (C-terminal; N-terminal for α-actinin), 800 nm/s) was “shows a population of high-force traces with multiple unfolding peaks”. For the same substance, in test [1], the “relative mechanical stability of Vd1-VBS complex” value was “formed the most stable complex” and the “ratio of unfolding to direct unbinding (UF/UB)” value was “≈ 2”.

For ILEAAKSIAAATSALVKAASAAQRE [Talin VBS58], in test [1], the “relative mechanical stability of Vd1-VBS complex” value is listed as “least stable complex; also recorded: low mechanical stability” and the “ratio of unfolding to direct unbinding (UF/UB)” value is “≈ 0.4”. Also, the “interaction in SPOT-peptide assay” value with vinculin is given as “strong interaction”.

Take “talin VBS11 peptide with C-terminal cysteine (GSGS-VBS-GSGS-C) (from UniProt Q9Y490 820-843)”: in test [2], the UF/UB (ratio of unfolding to direct unbinding) stood at 2; the rupture force, high-force population is > 60 pN; the rupture force, low-force population was < 60 pN.

Consider “talin VBS11 peptide with N-terminal cysteine (C-GSGS-VBS-GSGS) (from UniProt Q9Y490 820-843)”, for which the UF/UB (ratio of unfolding to direct unbinding) in test [2] was 0.

Consider “talin VBS58 peptide with C-terminal cysteine (GSGS-VBS-GSGS-C) (from UniProt Q9Y490 2345-2369)”, for which, in test [2], the UF/UB (ratio of unfolding to direct unbinding) was 0.4 and the mean rupture force fell in the range of 45 to 60 pN.

For “talin VBS58 peptide with N-terminal cysteine (C-GSGS-VBS-GSGS) (from UniProt Q9Y490 2345-2369)”, the UF/UB (ratio of unfolding to direct unbinding) in test [2] is 0.
